Reference: patent publication US12486253B2, “Therapeutics for the degradation of mutant BRAF” (C4 THERAPEUTICS, INC., priority 2021, dated 2025)

Target: BRAF V600E (Homo sapiens, UniProt P15056, V600E)
Assay: HiBiT cellular BRAF^V600E degradation assay
Format: cell-based
Settings: A375.10 cells, 24 h; for DC50: concentration at which 50% of total cellular BRAF^V600E is degraded; for Emax: residual protein remaining in the cell, read-out: HiBit 24 h Emax

BRAF V600E, sequence (P15056 whole entry V600E): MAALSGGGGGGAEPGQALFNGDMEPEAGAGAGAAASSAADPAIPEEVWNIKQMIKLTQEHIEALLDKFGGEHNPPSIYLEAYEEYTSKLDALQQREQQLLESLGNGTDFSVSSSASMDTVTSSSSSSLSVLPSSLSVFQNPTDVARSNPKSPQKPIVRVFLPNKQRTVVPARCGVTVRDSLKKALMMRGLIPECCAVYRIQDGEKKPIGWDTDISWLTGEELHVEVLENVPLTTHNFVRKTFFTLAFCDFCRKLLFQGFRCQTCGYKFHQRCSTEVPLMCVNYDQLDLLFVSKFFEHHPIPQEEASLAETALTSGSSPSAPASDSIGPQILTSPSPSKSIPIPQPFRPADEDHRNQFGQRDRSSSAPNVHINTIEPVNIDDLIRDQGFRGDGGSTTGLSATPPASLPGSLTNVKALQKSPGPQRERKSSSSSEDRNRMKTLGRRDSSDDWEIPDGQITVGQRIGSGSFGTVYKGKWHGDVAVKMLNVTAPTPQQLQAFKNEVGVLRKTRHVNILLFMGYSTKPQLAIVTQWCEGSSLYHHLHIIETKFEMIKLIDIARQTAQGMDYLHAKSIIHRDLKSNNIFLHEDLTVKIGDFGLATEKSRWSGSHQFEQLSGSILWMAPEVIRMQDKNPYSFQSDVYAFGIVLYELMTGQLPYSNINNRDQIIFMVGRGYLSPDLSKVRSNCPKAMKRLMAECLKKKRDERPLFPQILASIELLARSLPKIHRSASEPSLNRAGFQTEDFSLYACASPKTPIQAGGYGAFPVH

Compound | DC50 [nM] | Emax [%]
Cn1nc(N2CCC(=O)NC2=O)c2cc(F)c(N3CCC(O)(CC(=O)N4CCC5(CC4)C[C@@H](n4cnc6ccc(Oc7c(F)ccc(NS(=O)(=O)C8CCCC8)c7C#N)cc6c4=O)CO5)CC3)cc21 [Example 191, N-[2-cyano-3-[3-[(3R)-8-[2-[1-[3-(2,4-dioxo-1,3-diazinan-1-yl)-5-fluoro-1-methylindazol-6-yl]-4-hydroxypiperidin-4-yl]acetyl]-1-oxa-8-azaspiro[4.5]decan-3-yl]-4-oxoquinazolin-6-yl]oxy-4-fluorophenyl]cyclopentanesulfonamide] | 27.1 | 26.8
Cn1nc(N2CCC(=O)NC2=O)c2cc(F)c(N3CCC(O)(CC(=O)N4CCC5(CC4)C[C@@H](n4cnc6ccc(Oc7c(F)ccc(NS(=O)(=O)C8CC8)c7C#N)cc6c4=O)CO5)CC3)cc21 [Example 192, N-[2-cyano-3-[3-[(3R)-8-[2-[1-[3-(2,4-dioxo-1,3-diazinan-1-yl)-5-fluoro-1-methylindazol-6-yl]-4-hydroxypiperidin-4-yl]acetyl]-1-oxa-8-azaspiro[4.5]decan-3-yl]-4-oxoquinazolin-6-yl]oxy-4-fluorophenyl]cyclopropanesulfonamide] | 31.7 | 32.2
COC1CN(S(=O)(=O)Nc2ccc(F)c(Oc3ccc4ncn([C@H]5COC6(CCN(C(=O)CC7(O)CCN(c8cc9c(cc8F)c(N8CCC(=O)NC8=O)nn9C)CC7)CC6)C5)c(=O)c4c3)c2C#N)C1 [Example 193, N-[2-cyano-3-[3-[(3R)-8-[2-[1-[3-(2,4-dioxo-1,3-diazinan-1-yl)-5-fluoro-1-methylindazol-6-yl]-4-hydroxypiperidin-4-yl]acetyl]-1-oxa-8-azaspiro[4.5]decan-3-yl]-4-oxoquinazolin-6-yl]oxy-4-fluorophenyl]-3-methoxyazetidine-1-sulfonamide] | 142 | 33.8
Cn1nc(N2CCC(=O)NC2=O)c2cc(F)c(N3CCC(O)(CC(=O)N4CCC5(CC4)C[C@@H](n4cnc6ccc(Oc7c(F)ccc(NS(=O)(=O)N8CC9CC9C8)c7C#N)cc6c4=O)CO5)CC3)cc21 (stereo partly drawn) [Example 194, N-[2-cyano-3-[3-[(3R)-8-[2-[1-[3-(2,4-dioxo-1,3-diazinan-1-yl)-5-fluoro-1-methylindazol-6-yl]-4-hydroxypiperidin-4-yl]acetyl]-1-oxa-8-azaspiro[4.5]decan-3-yl]-4-oxoquinazolin-6-yl]oxy-4-fluorophenyl]-3-azabicyclo[3.1.0]hexane-3-sulfonamide] | 42.8 | 26.2
Cn1nc(N2CCC(=O)NC2=O)c2cc(F)c(N3CCC(O)(CC(=O)N4CCC5(CC4)C[C@@H](n4cnc6ccc(Oc7c(F)ccc(NS(=O)(=O)N8CCCC8)c7C#N)cc6c4=O)CO5)CC3)cc21 [Example 195, N-[2-cyano-3-[3-[(3R)-8-[2-[1-[3-(2,4-dioxo-1,3-diazinan-1-yl)-5-fluoro-1-methylindazol-6-yl]-4-hydroxypiperidin-4-yl]acetyl]-1-oxa-8-azaspiro[4.5]decan-3-yl]-4-oxoquinazolin-6-yl]oxy-4-fluorophenyl]pyrrolidine-1-sulfonamide] | 16 | 26.3
Cn1nc(N2CCC(=O)NC2=O)c2cc(F)c(N3CCC(O)(CC(=O)N4CCC5(CC4)C[C@@H](n4cnc6ccc(Oc7c(F)ccc(NS(=O)(=O)N8CCC8)c7C#N)cc6c4=O)CO5)CC3)cc21 [Example 196, N-[2-cyano-3-[3-[(3R)-8-[2-[1-[3-(2,4-dioxo-1,3-diazinan-1-yl)-5-fluoro-1-methylindazol-6-yl]-4-hydroxypiperidin-4-yl]acetyl]-1-oxa-8-azaspiro[4.5]decan-3-yl]-4-oxoquinazolin-6-yl]oxy-4-fluorophenyl]azetidine-1-sulfonamide] | 9990 | 89.4
